For assay [1], the system named is Jurkat. Nature of the assay: Compound was assessed for NF-kB activity using human T cell leukemia Jurkat cells; Less toxic. In kind it is functional, cell-based.
Another assay is filed under the species Mus musculus. Nature of the assay: Compound was tested for antiarthritic effects on type-II collagen induced arthritis in DBA1/J mice; inhibited. In kind it is functional, organism-based.
The subject of assay [2] is Jurkat. As to the kind of experiment: Compound was assessed for NF-kB activity using human T cell leukemia Jurkat cells; more toxic. The format is functional, cell-based.

Consider two molecules from ChEMBL document CHEMBL1133347, “Synthesis of NF-kappaB activation inhibitors derived from epoxyquinomicin C” (Bioorg Med Chem Lett, 2000).

SMILES strings stand for the structures.

As to `O=C(NC1=CC(=O)[C@H]2O[C@H]2[C@H]1O)c1ccccc1O`, the Activity result in the assay with Jurkat [1] is “Toxic”; in the assay filed under Mus musculus it was “Inhibited”. Take `O=C(NC1=CC(O)C2OC2C1=O)c1ccccc1O` (stereo not drawn): in the assay with Jurkat [2], the Activity result is “Toxic”.
